Laboratory results: PubChem BioAssay AID256 (DTP/NCI, 2004)
Inconclusive results and toxic doses are left out.

Tested on: CD2F1 mice, L1210 leukemia ip, survival T/C
Test: NCI In Vivo Anticancer Drug Screen. Data for tumor model L1210 Leukemia (intraperitoneal) in CD2F1 (CDF1) mice
Settings: higher = longer survival
Summary of the method: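 Tumor-bearing mice (transplanted tumor) were split into treated and vehicle control groups, and the measured endpoint of each treated group was divided by that of its vehicle controls.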

[1] = endpoint: mean survival time, dose: 50.0 mg/kg/injection, schedule: Q01DX009 (ip), vehicle: Klucel (hydroxypropylcellulose) (HPC)
[2] = endpoint: mean survival time, dose: 100.0 mg/kg/injection, schedule: Q01DX009 (ip), vehicle: Klucel (hydroxypropylcellulose) (HPC)
[3] = endpoint: mean survival time, dose: 100.0 mg/kg/injection, schedule: Q04DX002 (ip), vehicle: saline with Tween-80
[4] = endpoint: mean survival time, dose: 200.0 mg/kg/injection, schedule: Q01DX009 (ip), vehicle: Klucel (hydroxypropylcellulose) (HPC)
[5] = endpoint: mean survival time, dose: 200.0 mg/kg/injection, schedule: Q04DX002 (ip), vehicle: saline with Tween-80
[6] = endpoint: mean survival time, dose: 100.0 mg/kg/injection, schedule: Q01DX009 (ip), vehicle: saline with Tween-80
[7] = endpoint: mean survival time, dose: 200.0 mg/kg/injection, schedule: Q01DX009 (ip), vehicle: saline with Tween-80
[8] = endpoint: mean survival time, dose: 12.5 mg/kg/injection, schedule: Q04DX002 (ip), vehicle: saline with Tween-80
[9] = endpoint: mean survival time, dose: 25.0 mg/kg/injection, schedule: Q04DX002 (ip), vehicle: saline with Tween-80
[10] = endpoint: mean survival time, dose: 100.0 mg/kg/injection, schedule: Q04DX003 (ip), vehicle: saline with Tween-80
[11] = endpoint: mean survival time, dose: 400.0 mg/kg/injection, schedule: Q04DX003 (ip), vehicle: saline with Tween-80
[12] = endpoint: mean survival time, dose: 200.0 mg/kg/injection, schedule: Q04DX003 (ip), vehicle: saline with Tween-80

Compound: Nc1nc(N)c(N)c(/C=C/c2ccccc2)n1
- T/C (endpoint: mean survival time, dose: 0.32 mg/kg/injection, schedule: Q01DX009 (ip), vehicle: other): 101 % of control
- T/C (endpoint: mean survival time, dose: 0.63 mg/kg/injection, schedule: Q01DX009 (ip), vehicle: other): 106 % of control
- T/C (endpoint: mean survival time, dose: 0.63 mg/kg/injection, schedule: Q01DX009 (ip), vehicle: water): 97 % of control
- T/C (endpoint: mean survival time, dose: 1.25 mg/kg/injection, schedule: Q01DX009 (ip), vehicle: other): 98 % of control
- T/C (endpoint: mean survival time, dose: 1.25 mg/kg/injection, schedule: Q01DX009 (ip), vehicle: water): 103 % of control
- T/C (endpoint: mean survival time, dose: 2.5 mg/kg/injection, schedule: Q01DX009 (ip), vehicle: other): 101 % of control
- T/C (endpoint: mean survival time, dose: 2.5 mg/kg/injection, schedule: Q01DX009 (ip), vehicle: water): 97 % of control
- T/C (endpoint: mean survival time, dose: 5.0 mg/kg/injection, schedule: Q01DX009 (ip), vehicle: other): 101 % of control
- T/C (endpoint: mean survival time, dose: 5.0 mg/kg/injection, schedule: Q01DX009 (ip), vehicle: water): 97 % of control

Compound: CC(=O)C1=C(O)C(CSCc2ccccc2)N(C)C1=O (stereo not given)
- T/C (endpoint: mean survival time, dose: 75.0 mg/kg/injection, schedule: Q01DX001 (ip), vehicle: other): 95 % of control
- T/C (endpoint: mean survival time, dose: 150.0 mg/kg/injection, schedule: Q01DX001 (ip), vehicle: other): 92 % of control
- T/C (endpoint: mean survival time, dose: 300.0 mg/kg/injection, schedule: Q01DX001 (ip), vehicle: other): 91 % of control

Compound: O=C1NC(=O)C(=Cc2cc3c(cc2Br)OCO3)C(=O)N1
- T/C (endpoint: mean survival time, dose: 25.0 mg/kg/injection, schedule: Q01DX009 (ip), vehicle: Klucel (hydroxypropylcellulose) (HPC)): 91 % of control
- T/C [1]: 93 % of control
- T/C [2]: 89 % of control
- T/C [3]: 104 % of control
- T/C [4]: 100 % of control
- T/C [5]: 112 % of control
- T/C (endpoint: mean survival time, dose: 400.0 mg/kg/injection, schedule: Q04DX002 (ip), vehicle: saline with Tween-80): 108 % of control

Compound: O=c1ccc2ccccc2o1
- T/C [1]: 100 % of control
- T/C [2]: 96 % of control
- T/C [4]: 96 % of control

Compound: C/C=C(/CCCCC)C(=O)OCC
- T/C [6]: 106 % of control
- T/C [7]: 100 % of control
- T/C (endpoint: mean survival time, dose: 400.0 mg/kg/injection, schedule: Q01DX009 (ip), vehicle: saline with Tween-80): 101 % of control

Compound: CC(=O)OC1CCC2(C)C(CCC3(C)C2CCC2C4C5OC(=O)C4(CCC5(C)C)CCC23C)C1(C)C (stereo not given)
- T/C (endpoint: mean survival time, dose: 6.25 mg/kg/injection, schedule: Q04DX002 (ip), vehicle: saline with Tween-80): 114 % of control
- T/C [8]: 100 % of control
- T/C [9]: 100 % of control
- T/C (endpoint: mean survival time, dose: 50.0 mg/kg/injection, schedule: Q04DX002 (ip), vehicle: saline with Tween-80): 88 % of control
- T/C [3]: 98 % of control

Compound: CCOC(=O)c1cc(C=O)nc2c(Cl)cc(Cl)cc12
- T/C [10]: 96 % of control
- T/C [11]: 98 % of control

Compound: O=C(NCCN1CC1)c1ccccc1C(=O)NCCN1CC1
- T/C (endpoint: mean survival time, dose: 25.0 mg/kg/injection, schedule: Q04DX003 (ip), vehicle: saline with Tween-80): 105 % of control
- T/C (endpoint: mean survival time, dose: 50.0 mg/kg/injection, schedule: Q04DX003 (ip), vehicle: saline with Tween-80): 100 % of control
- T/C (endpoint: mean survival time, dose: 100.0 mg/kg/injection, schedule: Q01DX001 (ip), vehicle: saline): 110 % of control
- T/C [10]: 117 % of control
- T/C (endpoint: mean survival time, dose: 200.0 mg/kg/injection, schedule: Q01DX001 (ip), vehicle: saline): 164 % of control

Compound: Cc1ccc([NH-])cc1C.Cc1ccc([NH-])cc1C.[Cl][Pt+2][Cl]
- T/C (endpoint: mean survival time, dose: 3.12 mg/kg/injection, schedule: Q04DX003 (ip), vehicle: distilled water + Tween-80): 103 % of control
- T/C (endpoint: mean survival time, dose: 6.25 mg/kg/injection, schedule: Q04DX003 (ip), vehicle: distilled water + Tween-80): 103 % of control
- T/C (endpoint: mean survival time, dose: 12.5 mg/kg/injection, schedule: Q04DX003 (ip), vehicle: distilled water + Tween-80): 108 % of control
- T/C (endpoint: mean survival time, dose: 25.0 mg/kg/injection, schedule: Q04DX003 (ip), vehicle: distilled water + Tween-80): 106 % of control
- T/C (endpoint: mean survival time, dose: 50.0 mg/kg/injection, schedule: Q04DX003 (ip), vehicle: distilled water + Tween-80): 108 % of control

Compound: CC1CC(O)C(=O)C(O[C@@H]2C[C@@H]3CC[C@@H]4[C@H](CC[C@]5(C)C(C6=CC(=O)OC6)CC[C@]45O)[C@@]3(C=O)C[C@H]2O)O1 (stereo not given in full)
- T/C (endpoint: mean survival time, dose: 6.25 mg/kg/injection, schedule: Q01DX001 (ip), vehicle: saline with Tween-80): 104 % of control
- T/C (endpoint: mean survival time, dose: 12.5 mg/kg/injection, schedule: Q01DX001 (ip), vehicle: saline with Tween-80): 104 % of control

Compound: C=C1C(O)CC2CC1C2(C)C (stereo not given)
- T/C (endpoint: mean survival time, dose: 50.0 mg/kg/injection, schedule: Q01DX009 (ip), vehicle: saline with Tween-80): 98 % of control

Compound: C1=CC2C3=CC1C=CC32 (stereo not given)
- T/C (endpoint: mean survival time, dose: 100.0 mg/kg/injection, schedule: Q01DX009 (ip), vehicle: acetone): 92 % of control
- T/C (endpoint: mean survival time, dose: 200.0 mg/kg/injection, schedule: Q01DX009 (ip), vehicle: acetone): 95 % of control

Compound: CCCCNC(C)(C)C(S)c1ccc(Cl)cc1 (stereo not given)
- T/C (endpoint: mean survival time, dose: 12.0 mg/kg/injection, schedule: Q04DX003 (ip), vehicle: other): 96 % of control
- T/C (endpoint: mean survival time, dose: 25.0 mg/kg/injection, schedule: Q04DX003 (ip), vehicle: other): 105 % of control
- T/C (endpoint: mean survival time, dose: 50.0 mg/kg/injection, schedule: Q04DX003 (ip), vehicle: other): 94 % of control

Compound: NC(=S)c1ncn(C2OC(CO)C(O)C2O)c1N (stereo not given)
- T/C (endpoint: mean survival time, dose: 100.0 mg/kg/injection, schedule: Q04DX002 (ip), vehicle: saline): 115 % of control
- T/C (endpoint: mean survival time, dose: 200.0 mg/kg/injection, schedule: Q04DX002 (ip), vehicle: saline): 110 % of control
- T/C (endpoint: median survival time, dose: 25.0 mg/kg/injection, schedule: Q01DX005 (ip), vehicle: saline with Tween-80): 111 % of control
- T/C (endpoint: median survival time, dose: 25.0 mg/kg/injection, schedule: Q01DX005 (ip), vehicle: saline): 113 % of control
- T/C (endpoint: median survival time, dose: 25.0 mg/kg/injection, schedule: Q01DX009 (ip), vehicle: saline with Tween-80): 122 % of control
- T/C (endpoint: median survival time, dose: 25.0 mg/kg/injection, schedule: Q01DX009 (ip), vehicle: saline): 115 % of control
- T/C (endpoint: median survival time, dose: 50.0 mg/kg/injection, schedule: Q01DX005 (ip), vehicle: saline with Tween-80): 120 % of control
- T/C (endpoint: median survival time, dose: 100.0 mg/kg/injection, schedule: Q01DX005 (ip), vehicle: saline): 166 % of control
- T/C (endpoint: median survival time, dose: 100.0 mg/kg/injection, schedule: Q01DX009 (ip), vehicle: saline with Tween-80): 160 % of control
- T/C (endpoint: median survival time, dose: 200.0 mg/kg/injection, schedule: Q01DX005 (ip), vehicle: saline with Tween-80): 171 % of control
- T/C (endpoint: median survival time, dose: 200.0 mg/kg/injection, schedule: Q01DX005 (ip), vehicle: saline): 166 % of control
- T/C (endpoint: median survival time, dose: 200.0 mg/kg/injection, schedule: Q01DX009 (ip), vehicle: saline with Tween-80): 159 % of control
- T/C (endpoint: median survival time, dose: 200.0 mg/kg/injection, schedule: Q01DX009 (ip), vehicle: saline): 157 % of control
- T/C (endpoint: median survival time, dose: 400.0 mg/kg/injection, schedule: Q01DX005 (ip), vehicle: saline with Tween-80): 161 % of control
- T/C (endpoint: median survival time, dose: 400.0 mg/kg/injection, schedule: Q01DX005 (ip), vehicle: saline): 180 % of control
- T/C (endpoint: median survival time, dose: 400.0 mg/kg/injection, schedule: Q01DX009 (ip), vehicle: saline with Tween-80): 160 % of control
- T/C (endpoint: median survival time, dose: 400.0 mg/kg/injection, schedule: Q01DX009 (ip), vehicle: saline): 155 % of control

Compound: NC(=S)N/N=C/c1ccc(Br)cn1
- T/C [8]: 110 % of control
- T/C [9]: 110 % of control

Compound: CCCC1C(=O)N2C(N(C)C)=Nc3ccc(C)cc3N2C1=O (stereo not given)
- T/C [10]: 94 % of control
- T/C [12]: 96 % of control
- T/C [11]: 96 % of control

Compound: CC(C)C(C)CCC(C)C1CCC2=C3CCC4CC(O)CCC4(C)C3CCC21C (stereo not given)
- T/C (endpoint: mean survival time, dose: 75.0 mg/kg/injection, schedule: Q01DX001 (ip), vehicle: saline with Tween-80): 89 % of control
- T/C (endpoint: mean survival time, dose: 150.0 mg/kg/injection, schedule: Q01DX001 (ip), vehicle: saline with Tween-80): 92 % of control
- T/C (endpoint: mean survival time, dose: 300.0 mg/kg/injection, schedule: Q01DX001 (ip), vehicle: saline with Tween-80): 100 % of control

Compound: COc1ccc(NC(=O)Nc2cc(Cl)c(OC)cc2OC)cc1
- T/C [3]: 93 % of control
- T/C [5]: 86 % of control

Compound: CN(C)c1ccc(/C=N/NC(=O)c2ccccc2N)c(Cl)c1
- T/C [6]: 87 % of control
- T/C [7]: 87 % of control

Compound: COC(=O)C1(C)CCCC2(C)C1CCC13OCC(CC21)C1(C(C)C)OC31 (stereo not given)
- T/C [10]: 101 % of control
- T/C [12]: 100 % of control
- T/C [11]: 95 % of control

Compound: N#CC1c2ccccc2C=NN1C(=O)N(c1ccccc1)c1ccccc1 (stereo not given)
- T/C (endpoint: mean survival time, dose: 100.0 mg/kg/injection, schedule: Q04DX003 (ip), vehicle: other): 103 % of control
- T/C (endpoint: mean survival time, dose: 200.0 mg/kg/injection, schedule: Q04DX003 (ip), vehicle: other): 105 % of control
- T/C (endpoint: mean survival time, dose: 400.0 mg/kg/injection, schedule: Q04DX003 (ip), vehicle: other): 105 % of control
